Assay results published in US20030170252A1, “Antibody compositions specific for p33QIK and p63Krs1 polypeptides and uses thereof” (priority 2000, published 2003).
Starred links: 1 amine or outer side, 2 acyl side, 3 side chain; linkers in the order of their positions; H or OH if unused. Positions of bridges follow the written chain, without caps; N, C: chain ends. Non-standard residues stand in square brackets, D forms with d. Residues, ends and D or L forms follow the SMILES beside them. Chains are numbered I, II in the order given. Actinocin(9to1) = Cc1c2oc3c(C)ccc(C(=O)[*:1])c3nc-2c(C(=O)[*:2])c(N)c1=O; NMeV = CN[C@H](C(=O)O)C(C)C; Sar = CNCC(=O)O

What was measured:
NIH3T3 cultures = assay: Cell death in quiescent NIH3T3 cultures; assay type: cell-based, mouse; settings: quiescent cultures treated with ActD or CHXM for 3 hr
p33^QIK [1] = assay: In-gel kinase assay (MBP substrate) of p33^QIK activity in treated NIH3T3 cultures; assay type: cell-based, mouse; settings: for TPA-induced deactivation of p33^QIK: quiescent NIH3T3, co-treatment with 100 ng/ml TPA; for serum-induced down-regulation of p33^QIK activity: quiescent NIH3T3, co-treatment with 10% serum
Method: (§1) Mouse NIH3T3 fibroblast cultures were maintained in Dulbecco's modified Eagle's medium (DMEM)(BRL/GIBCO, Grand Island, N.Y.) supplemented with 5% calf serum, 50 units/ml penicillin, and 5 mcg/ml streptomycin, and cultivated at 37° C.
(§2) Mouse 10T1/2 fibroblast cultures were maintained in Basal medium Eagle (BRL/GIBCO, Grand Island, N.Y.) supplemented with 10% heat-inactivated fetal bovine serum, 50 U/ml penicillin, and 5 μg/ml streptomycin, and cultivated at 37° C. Cells synchronized in quiescent state were growth-arrested by serum starvation for 48 hr. Actinomycin D (ActD), cycloheximide (CHXM), 12-0-tetradecanoylphorbol 13-acetate (TPA), staurosporine (STSP) (Sigma Chemical, St. Louis, Mo.), sodium fluoride (NaF), sodium orthovanadate (Na3VO4) (Fisher Scientific, Pittsburgh, Pa.), and FR901228 (FR)(NCI, Frederick, Md.) were diluted in cultured medium before treatment of cultured cells. A broad range caspase inhibitor Z-Asp-[(2,6-dichlorobenzoyl)oxy]methane (Z-D-CH2-DCB) (Dolle et al., 1994; Mashima et al., 1995)(CALBIOCHEM, La Jolla, Calif.) was dissolved in dimethyl sulfoxide and diluted in cultured medium for treatment. Recombinant human Caspase-3 was purchased from Alexis Biochemicals (San Diego, Calif.). Protein phosphatase 1 (PP1) and Lambda protein phosphatase (λPPase) were purchased from NE BioLabs (Beverly, Mass.). Production of rabbit polyclonal antibody Ab-KQ to p63^Krsl and p33^QIK was made using peptide sequences of Krsl as antigens (Alpha Diagnostic International, San Antonio, Tex.). UV irradiation was carried out using a UV Crosslinker (Stratagene, La Jolla, Calif.).
(§3) Cells were lysed with 30 strokes of a tight-fitting Dounce homogenizer in lysis A buffer (10 mM KH2PO4, 1 mM EDTA, 5 mM EGTA, 10 mM MgCl2, 50 mM […], 1 mM Na3VO4, 2 mM dithiothreitol) (Wang et al., 1992). Cytoplasmic proteins (S20) were isolated from the supernatants after centrifugation of crude lysates at 20,000 ×g for 20 min. Protein concentration in S20 was measured by using the BCA assay (Pierce, Rockford, Ill.). Immunoprecipitation of p33^QIK was carried out by incubation of S20 with the specific antibody Ab-KQ at 0° C. for 1 hr. Immune complexes were adsorbed to Pansorbin (Staphylococcus aureus) (CALBIOCHEM, La Jolla, Calif.) at 0° C. for 30 min and washed with STE buffer (50 mM Tris-HCl, pH 7.0, 150 mM NaCl, 1 mM Na2 EDTA) supplemented with 0.1 mM DTT and 0.1% NP-40 and ST buffer supplemented with 1 mM DTT.
(§4) MBP (BRL/GIBCO, Grand Island, N.Y.) was used as a substrate in the assay and the in-gel kinase assay was performed as previously described (Wang et al., 1992). Briefly, 10% SDS-polyacrylamide gel (SDS-PAG) was copolymerized with 0.4 mg/ml MBP. Cellular proteins were resolved in the MBP-immobilized SDS-PAG, followed by rinsing the gel with 20% isopropanol in buffer B (100 mM Tris, pH 8, 5 mM β-mercaptoethanol). The gel was denatured in buffer B supplemented with 6 M guanidine-HCl and renatured with buffer B supplemented with 0.04% Tween 40 (Kameshita and Fujisawa, 1989). Kinase reaction was carried out by incubating the gel with kinase buffer (20 Mm Tris, pH 7.2, 10 mM MgCl2, 15 mM β-glycerolphosphate) supplemented with 50 μM γATP and 50 μCi of [γ-^32P]ATP at 22° C. for 30 min. The gel was washed with 1% sodium pyrophosphate in 5% trichloroacetic acid. Protein kinases which phosphorylated MBP in the gel were detected by autoradiography of the [γ^32P]-labeled MBP.

p44/42^Erk = assay type: cell-based, mouse; settings: quiescent NIH3T3 treated with serum or TPA in the presence of ActD or CHXM
Method: as §1, §2, §3, §4

33 kDa-MBP kinase = settings: MCF-7 and MDA-MB361 cells treated with FR (Rajgolikar et al., 1998); cited from earlier work
p33^QIK [2] = assay: In-gel kinase assay of p33^QIK activity in 10T1/2 cultures; assay type: cell-based; settings: mouse fibroblast 10T1/2 cultures treated with FR
Method: as §2, with “Production of rabbit polyclonal antibody Ab-KQ to p63^Krsl and p33^QIK was made using peptide sequences of Krsl as antigens (Alpha Diagnostic International, San Antonio, Tex.). UV irradiation was carried out using a UV Crosslinker (Stratagene, La Jolla, Calif.).” left out
(§5) MBP (BRL/GIBCO, Grand Island, N.Y.) was used as a substrate in the assay and the in-gel kinase assay was performed as previously described (Wang et al., 1992). […] Protein kinases which phosphorylated MBP in the gel were detected by autoradiography of the [γ^32P]-labeled MBP.

NIH3T3 cells = assay: Flow cytometric analysis of DNA content (cell cycle phase); assay type: cell-based, mouse
Method: After rinsing with phosphate buffered saline (PBS), cells were trypsinized from culture dishes, rinsed with Ca^++ and Mg^++ free PBS, fixed in 70% cold ethanol, and stained with 10 μg/ml propidium iodide (PI) for 30 min (Darzynkiewicz et al., 1995). Flow cytometry analysis was performed on the Coulter EPICS Elite Cytometer (Hialeah, Fla.) using 15 mW air-cooled argon laser producing 488-nm light in which PI fluorescence light emission is collected with a 610LPDC filter. Extended analysis of DNA content and calculation of the percentage of cells in each phase of the cell cycle were performed on Multicycle software (Phoenix Flow System, San Diego, Calif.).

p63^Krsl = assay: In-gel kinase assay (MBP substrate) of p63^Krsl activity in treated NIH3T3 cultures; assay type: cell-based, mouse; settings: quiescent NIH3T3 cultures, 100 nM STSP, 2 hr
Method: as §1
Mouse 10T1/2 fibroblast cultures were maintained in Basal medium Eagle (BRL/GIBCO, Grand Island, N.Y.) supplemented with 10% heat-inactivated fetal bovine serum, 50 U/ml penicillin, and 5 μg/ml streptomycin, and cultivated at 37° C. Cells synchronized in quiescent state were growth-arrested by serum starvation for 48 hr. […]
Cells were lysed with 30 strokes of a tight-fitting Dounce homogenizer in lysis A buffer (10 mM KH2PO4, 1 mM EDTA, 5 mM EGTA, 10 mM MgCl2, 50 mM […], 1 mM Na3VO4, 2 mM dithiothreitol) (Wang et al., 1992). […] Protein concentration in S20 was measured by using the BCA assay (Pierce, Rockford, Ill.). […]
as §5

cells = settings: cited from earlier work
Caspase-3 = biological target: T1, Caspase-3 (Homo sapiens, UniProt P42574); assay: Inhibition of caspase-3 modification of immune complexes; assay type: biochemical; settings: 5 μM inhibitor, 0.2 μg Caspase-3, 37° C., 30 min
T1 construct: purchased Alexis Biochemicals (San Diego, Calif.)
T1 sequence (P42574 29-175 limits assumed): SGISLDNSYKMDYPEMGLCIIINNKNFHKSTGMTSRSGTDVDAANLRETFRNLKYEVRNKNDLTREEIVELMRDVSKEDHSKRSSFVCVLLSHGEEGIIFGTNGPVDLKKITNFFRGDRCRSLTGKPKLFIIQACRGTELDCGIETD
Method: Both p63^Krsl and p33^QIK in 10 μg of cytosolic lysates (S20) were immunoprecipitated by Ab-KQ (lanes 2 to 4 and 6 to 8), followed by reatment with 0.2 μg Caspase-3 (C)(lanes 3, 4, 7 and 8) in the presence of 5 μM caspase inhibitor Z-D-CH2-DCB (C+I)(lanes 4 and 8) at 37° C. for 30 min. The kinase activities of p63^Krsl, p35, and p33^QIK in 5 μg of S20 (lanes 1 and 5) and in the immune complexes were determined by the in-gel kinase assay using MBP as a substrate. Bars indicate p63^Krsl p35, and p33^QIK.
Mouse 10T1/2 fibroblast cultures were maintained in Basal medium Eagle (BRL/GIBCO, Grand Island, N.Y.) supplemented with 10% heat-inactivated fetal bovine serum, 50 U/ml penicillin, and 5 μg/ml streptomycin, and cultivated at 37° C. Cells synchronized in quiescent state were growth-arrested by serum starvation for 48 hr. Actinomycin D (ActD), cycloheximide (CHXM), 12-0-tetradecanoylphorbol 13-acetate (TPA), staurosporine (STSP) (Sigma Chemical, St. Louis, Mo.), sodium fluoride (NaF), sodium orthovanadate (Na3VO4) (Fisher Scientific, Pittsburgh, Pa.), and FR901228 (FR)(NCI, Frederick, Md.) were diluted in cultured medium before treatment of cultured cells. […]

[3] = quiescent NIH3T3, absence of serum, 5 μg/ml ActD or 10 μg/ml CHXM, 1 or 3 hr
[4] = 5 μg/ml ActD or 10 μg/ml CHXM, 1 or 3 hr
[5] = proliferating NIH3T3 cultures, 5 nM FR, 24 hr
[6] = NIH3T3 synchronized by serum starvation, 18 hr serum, then 10 nM STSP for 24 hr

SMILES: Cc1c2oc3c(C)ccc(C(=O)N[C@@H]4C(=O)N[C@H](C(C)C)C(=O)N5CCC[C@H]5C(=O)N(C)CC(=O)N(C)[C@@H](C(C)C)C(=O)O[C@@H]4C)c3nc-2c(C(=O)N[C@@H]2C(=O)N[C@H](C(C)C)C(=O)N3CCC[C@H]3C(=O)N(C)CC(=O)N(C)[C@@H](C(C)C)C(=O)O[C@@H]2C)c(N)c1=O [ActD, Actinomycin D] (I: T[dV]P[Sar][NMeV] / II: T[dV]P[Sar][NMeV]; ester I:1-I:C, II:1-II:C; linker I:N-II:N via Actinocin(9to1))
- cell death (NIH3T3 cultures): extensive cell death occurred
- kinase activity of p33^QIK (p33^QIK [1]; [3]): significant increases of p33^QIK activity
- TPA-induced deactivation of p33^QIK (p33^QIK [1]; [4]): blockage of the TPA-induced deactivation of p33^QIK but also in an increase in the kinase activity of p33^QIK
- serum-induced down-regulation of p33^QIK activity (p33^QIK [1]; [4]): blocked the serum-induced down-regulation of p33^QIK activity
- kinase activity of p44/42^Erk (p44/42^Erk): constant activation of p44/42^Erk

SMILES: C[C@@H]1C[C@@H]([C@H](O)CC2CC(=O)NC(=O)C2)C(=O)[C@@H](C)C1 [CHXM, cycloheximide]
- cell death (NIH3T3 cultures): extensive cell death occurred
- kinase activity of p33^QIK (p33^QIK [1]; [3]): significant increases of p33^QIK activity
- TPA-induced deactivation of p33^QIK (p33^QIK [1]; [4]): blockage of the TPA-induced deactivation of p33^QIK but also in an increase in the kinase activity of p33^QIK
- serum-induced down-regulation of p33^QIK activity (p33^QIK [1]; [4]): blocked the serum-induced down-regulation of p33^QIK activity
- kinase activity of p44/42^Erk (p44/42^Erk): constant activation of p44/42^Erk

SMILES: C/C=C1\NC(=O)[C@H]2CSSCC/C=C/[C@H](CC(=O)N[C@H](C(C)C)C(=O)N2)OC(=O)[C@H](C(C)C)NC1=O [FR, FR901228]
- 33 kDa-MBP kinase activity (33 kDa-MBP kinase): induction of a 33 kDa-MBP kinase activity
- kinase activity of p33^QIK (p33^QIK [2]): Activation of p33^QIK was also detected
- kinase activity of p33^QIK (p33^QIK [1]; [5]): p33^QIK activity was induced
- cell population in each phase of the cell cycle (NIH3T3 cells; [5]): growth arrest of cells in G0/G1 phase was evident

SMILES: CN[C@@H]1C[C@H]2O[C@@](C)([C@@H]1OC)n1c3ccccc3c3c4c(c5c6ccccc6n2c5c31)C(=O)NC4 [STSP, staurosporine]
- kinase activity of p63^Krsl (p63^Krsl): activated p63^Krsl
- kinase activity of p33^QIK (p33^QIK [1]; [6]): activation of p33^QIK was detected
- concentration arresting cells in G2 phase (cells; high concentration): 100 to 150 nM
- concentration arresting cells in early G1 phase (cells; low concentration): 2 to 20 nM
- cell population in each phase of the cell cycle (NIH3T3 cells; [6]): a major population of cells was arrested in G0/G1 state

SMILES: O=C(O)CC(NC(=O)OCc1ccccc1)C(=O)COC(=O)c1c(Cl)cccc1Cl [Z-D-CH2-DCB, Z-Asp-[(2,6-dichlorobenzoyl)oxy]methane]
- induction of p33^QIK activity (p33^QIK [1]; cultures preincubated with caspase inhibitor prior to serum starvation and osmotic stress): neither blocked induction of p33^QIK activity
- blockage of caspase-3 induced changes in p63^Krsl, p35 and p33^QIK activity (Caspase-3): completely blocked
